The record followed here is ChEMBL document CHEMBL4371065, “Design and synthesis of biaryloxazolidinone derivatives containing a rhodanine or thiohydantoin moiety as novel antibacterial agents against Gram-positive bacteria” (Bioorg Med Chem Lett, 2019).

For data set [1], the system named is Enterococcus faecium. Description: Antibacterial activity against vancomycin-resistant Enterococcus faecium by broth liquid microdilution method. The format is functional.
For data set [2], the system named is Enterococcus faecalis. Description: Antibacterial activity against linezolid-resistant Enterococcus faecalis by broth liquid microdilution method. The class given is functional. For orientation: In broth dilution the organism is exposed to a series of concentrations in liquid medium.
For data set [3], the system named is Staphylococcus aureus. Nature of the data set: Antibacterial activity against methicillin-sensitive Staphylococcus aureus by broth liquid microdilution method. The class given is functional.
Data set [4] deals with Staphylococcus aureus. Nature of the data set: Antibacterial activity against methicillin-resistant Staphylococcus aureus by broth liquid microdilution method. The format is functional.
Data set [5] deals with Staphylococcus aureus. Description: Antibacterial activity against Staphylococcus aureus ATCC 29213 by broth liquid microdilution method. The class given is functional.
Data set [6] deals with HepG2. Nature of the data set: Cytotoxicity against human HepG2 cells after 48 hrs by MTT assay. The class given is cell-based. The following applies: HepG2, 48 h. For orientation: Tetrazolium dyes change colour on reduction, which living cells bring about.
For data set [7], the target named is T1, MAO-A (Homo sapiens, UniProt P21397).
T1 sequence (P21397 whole entry): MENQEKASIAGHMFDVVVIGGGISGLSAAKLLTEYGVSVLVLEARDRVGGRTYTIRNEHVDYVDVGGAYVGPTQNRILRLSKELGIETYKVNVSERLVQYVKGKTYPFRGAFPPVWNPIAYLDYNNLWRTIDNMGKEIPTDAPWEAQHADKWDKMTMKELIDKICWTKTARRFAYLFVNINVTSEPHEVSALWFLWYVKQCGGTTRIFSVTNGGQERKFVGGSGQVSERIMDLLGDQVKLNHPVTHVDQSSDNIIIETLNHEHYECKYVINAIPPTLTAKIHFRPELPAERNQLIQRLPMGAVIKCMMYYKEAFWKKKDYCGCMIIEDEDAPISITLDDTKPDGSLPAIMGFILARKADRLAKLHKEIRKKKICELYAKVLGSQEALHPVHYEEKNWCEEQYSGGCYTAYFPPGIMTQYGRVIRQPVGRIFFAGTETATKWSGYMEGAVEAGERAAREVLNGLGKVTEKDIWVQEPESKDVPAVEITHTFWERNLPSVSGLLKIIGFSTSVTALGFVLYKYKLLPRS
Description: Inhibition of recombinant human full length N-terminal FLAG-tagged MAO-A expressed in sf9 cells at 30 uM preincubated for 15 mins followed by substrate addition and measured after 60 mins by luminescence assay relative to control.

The subject of data set [8] is Staphylococcus aureus. Nature of the data set: Antibacterial activity against clinical isolates of methicillin-sensitive Staphylococcus aureus by broth liquid microdilution method. The format is functional.
Data set [9] concerns Enterococcus faecalis. Nature of the data set: Potency index, ratio of linezolid MIC to compound MIC for clinical isolates of linezolid-resistant Enterococcus faecalis. The class given is functional.
Data set [10] deals with Staphylococcus aureus. Nature of the data set: Antibacterial activity against clinical isolates of methicillin-resistant Staphylococcus aureus by broth liquid microdilution method. The class given is functional.
The subject of data set [11] is Enterococcus faecium. Nature of the data set: Antibacterial activity against clinical isolates of vancomycin-resistant Enterococcus faecium by broth liquid microdilution method. The class given is functional.
Data set [12] relates to Enterococcus faecalis. Nature of the data set: Antibacterial activity against clinical isolates of linezolid-resistant Enterococcus faecalis by broth liquid microdilution method. The format is functional.
Data set [13] has as its system Staphylococcus aureus. Nature of the data set: Potency index, ratio of radezolid MIC to compound MIC for methicillin-sensitive Staphylococcus aureus. The format is functional.
Data set [14] deals with Enterococcus faecium. Nature of the data set: Potency index, ratio of radezolid MIC to compound MIC for vancomycin-resistant Enterococcus faecium. The class given is functional.
Data set [15] has as its system Enterococcus faecalis. Nature of the data set: Potency index, ratio of radezolid MIC to compound MIC for linezolid-resistant Enterococcus faecalis. The class given is functional.
Data set [16] has as its system Staphylococcus aureus. Nature of the data set: Potency index, ratio of radezolid MIC to compound MIC for Staphylococcus aureus ATCC 29213. The class given is functional.

SMILES strings stand for the structures. Converted amounts (≈) assume the structure as drawn.

Take `CC(=O)NC[C@H]1CN(c2ccc(-c3ccc(/C=C4\SC(=S)N(CC(=O)O)C4=O)cc3)c(F)c2)C(=O)O1`: the MIC in [1], in [2], in data set [3], in data set [4] and in data set [5] was 1 µg/mL (≈ 1.89 µM) in each case.
In the case of `CC(=O)NC[C@H]1CN(c2ccc(-c3ccc(/C=C4\SC(=S)N(C(C)C(=O)O)C4=O)cc3)c(F)c2)C(=O)O1` (stereo partly specified), the minimum inhibitory concentration (MIC) in data set [1], in data set [2], in data set [3], in data set [4] and in data set [5] was 1 µg/mL (≈ 1.84 µM) throughout.
Take `CC(=O)NC[C@H]1CN(c2ccc(-c3ccc(/C=C4\SC(=S)N(CCCN5CCCCC5)C4=O)cc3)c(F)c2)C(=O)O1`: the MIC in data set [1], in data set [2], in data set [3], in data set [4] and in data set [5] was 1 µg/mL (≈ 1.68 µM) in each case.
Consider `CCN(CC)CCCN1C(=O)/C(=C/c2ccc(-c3ccc(N4C[C@H](CNC(C)=O)OC4=O)cc3F)cc2)NC1=S`, for which the MIC (commonly the smallest concentration in the dilution series that meets the test's criterion for growth inhibition) is 0.125 µg/mL (≈ 0.22 µM) in [1]; 0.125 µg/mL (≈ 0.22 µM) in data set [2]; 0.125 µg/mL (≈ 0.22 µM) in data set [3]; 0.125 µg/mL (≈ 0.22 µM) in data set [4]; 0.125 to 0.25 µg/mL (≈ 0.22 to 0.44 µM) in data set [8]; 0.125 to 0.5 µg/mL (≈ 0.22 to 0.881 µM) in [10]. Further, the figures for the minimum inhibitory concentration (MIC) in data set [11], in [5] and in data set [12] were 0.25 to 0.5 µg/mL (≈ 0.44 to 0.881 µM), 0.125 µg/mL (≈ 0.22 µM) and 0.125 to 0.25 µg/mL (≈ 0.22 to 0.44 µM), respectively. Further, in data set [6], the IC50 (in general, the point on the concentration scale where inhibition reaches its midpoint) turned out to be 91 µM. Besides, in data set [7], the inhibition (commonly the relative decrease from the control value, in per cent) at 1 h, 30 µM was determined as 98%. In addition, the Ratio in data set [9] amounted to 64.
As for `CCOC(=O)CN1C(=O)/C(=C/c2ccc(-c3ccc(N4C[C@H](CNC(C)=O)OC4=O)cc3F)cc2)SC1=S`, the MIC in [1], in data set [2], in data set [3], in data set [4] and in [5] was 1 µg/mL (≈ 1.79 µM) each time.
For the compound `CC(=O)NC[C@H]1CN(c2ccc(-c3ccc(/C=C4\NC(=S)N(CCCN5CCOCC5)C4=O)cc3)c(F)c2)C(=O)O1`, the minimum inhibitory concentration (MIC) in [1], in [2], in data set [3], in data set [4] and in [5] was 2 µg/mL (≈ 3.44 µM) throughout.
Regarding `CC(=O)NC[C@H]1CN(c2ccc(-c3ccc(/C=C4\NC(=S)N(CCCN5CCCCC5)C4=O)cc3)c(F)c2)C(=O)O1`, the MIC in data set [1], in [2], in data set [3], in data set [4] and in [5] was 1 µg/mL (≈ 1.73 µM) each time.
For the compound `CC(=O)NC[C@H]1CN(c2ccc(-c3ccc(/C=C4\SC(=S)N(C)C4=O)cc3)c(F)c2)C(=O)O1`, the MIC in data set [1], in data set [2], in data set [3], in data set [4] and in data set [5] was 0.25 µg/mL (≈ 0.515 µM) each time.
With `CC(=O)NC[C@H]1CN(c2ccc(-c3ccc(/C=C4\SC(=S)N(C(C(=O)O)c5ccccc5)C4=O)cc3)c(F)c2)C(=O)O1` (stereo partly specified), the MIC in data set [1], in [2], in data set [3], in data set [4] and in data set [5] was 1 µg/mL (≈ 1.65 µM) each time.
Take `CC(=O)NC[C@H]1CN(c2ccc(-c3ccc(/C=C4\SC(=S)NC4=O)cc3)c(F)c2)C(=O)O1`: the MIC was 0.125 µg/mL (≈ 0.265 µM) in [1]; 0.125 µg/mL (≈ 0.265 µM) in [2]; 0.125 µg/mL (≈ 0.265 µM) in data set [3]; 0.125 µg/mL (≈ 0.265 µM) in [4]; 1 to 2 µg/mL (≈ 2.12 to 4.24 µM) in data set [8]; 1 to 2 µg/mL (≈ 2.12 to 4.24 µM) in [11]. The values for the MIC in data set [5] and in [12] were 0.125 µg/mL (≈ 0.265 µM) and 1 to 2 µg/mL (≈ 2.12 to 4.24 µM), respectively. Also, the Ratio in data set [13], in data set [14], in data set [15] and in [16] was 4 each time. In data set [6], this compound returned a 50% inhibitory concentration (IC50) of 63.9 µM. The inhibition at 1 h, 30 µM in data set [7] came out at 99%.
